Entries after “also recorded” stand apart in the source; their conditions may differ.
Key:
ID8 flank tumors [1] = test: ID8 flank tumor model, BQ788 as tumor vaccine adjuvant (tumor growth); type: in vivo, mice
Procedure: (§1) Two injections of 5×10 6th UV irradiated ID8 ovarian cancer cells were injected sub-cutaneously in C57Bl6 mice one week apart. Vaccinated mice and non-vaccinated controls were injected with 5×10^6 ID8 cells in the flank with […] matrigel or intraperitoneally. Tumors were allowed to grow for 2 or 5 weeks as indicated, and then treated with intraperitoneal injections of BQ-788 (300 mcg) or control peptide for 2 weeks.
The murine epithelial ovarian cancer cell line ID8, syngeneic to C57BL/6 mice was cultured in DMEM supplemented with 4% FBS, 13 ITS media supplement (bovine insulin (5 mg/L), human transferrin (5 mg/L), and sodium selenite ([…]); Sigma), and antibiotics.
(§2) Female C57BL/6 mice (8 weeks of age) were injected 3 times […]. with 1×10^6 UV-treated, apoptotic ID8 ovarian cancer cells (resuspended in 500 microliter (mcL) DMEM without supplements) in the flank. For the orthotopic, intraperitoneal model, mice were injected i.p. with 5×10^6ID8 cells.
To confirm that ETRB plays a role in inhibiting T cell homing to human ovarian cancers, the ID8 syngeneic mouse model of ovarian cancer was utilized. This model responds modestly to potent dendritic cell (DC) vaccination. Strong expression of ETRB was detected in tumor endothelium in ID8 flank tumors by IHC (FIG. 7). […]

ID8 flank tumors [2] = test: T cell infiltration into ID8 flank tumors (IHC, flow cytometry); type: in vivo, mice
Procedure: as §1
FACS analysis was performed using APC-CD45 (BD Pharmingen), PE-anti CD3, FITC anti CD4, and Biotin anti-CD8 coupled with streptavid PE-Cy7.
(§3) To confirm that ETRB plays a role in inhibiting T cell homing to human ovarian cancers, the ID8 syngeneic mouse model of ovarian cancer was utilized. This model responds modestly to potent dendritic cell (DC) vaccination. Strong expression of ETRB was detected in tumor endothelium in ID8 flank tumors by IHC (FIG. 7). Mice were vaccinated with a suboptimal preventive vaccine, containing UV-treated ID8 cells, which results in induction of systemic tumor-reactive interferon-gamma secreting T cells without significant delay in tumor growth Following vaccination, mice were inoculated with flank tumors, which were allowed to engraft for 2 or 5 weeks, and then mice were treated i.p. with the ETRB antagonist peptide, BQ-788, […] (SEQ ID No: 90), every 2nd day for 2 weeks or with control peptide that was a scrambled version of the above peptide. Additional controls included non-vaccinated animals treated with BQ-788 or control peptide. To confirm that the above vaccination scheme results in significant increase in the frequency of systemic tumor-reactive T cells, CD3^+/CD8^+ splenocytes from vaccinated animals treated with BQ-788 or control peptide, and from non-vaccinated mice, were labeled with CFSE and incubated with DC pulsed with UV-radiated ID8 for 6 days to assess proliferation. […] Proliferation of lymphocytes from vaccinated mice treated with BQ-788 or control peptide was similar.
Tumor growth delay was not observed in non-vaccinated mice treated with BQ-788 or in vaccinated mice treated with control peptide. […] Flow cytometry from mechanically dissected tumors confirmed the results observed with IHC: In non-vaccinated animals treated with BQ-788 as well as in vaccinated animals treated with control peptide, CD3^+ cells represented on average 4% of the cells (range 0.5 to 12%), while vaccinated animals treated with BQ-788, CD3^+ cells represented 15% of the cells (range 8 to 30%), containing both CD4^+ and CD8^+ cells (FIG. 8).

CD3+/CD8+ splenocytes = test: T cell proliferation assay, CFSE-labeled splenocytes with DC pulsed with UV-radiated ID8; type: cell-based, mice; details: BQ-788 versus control peptide, 6 days with ID8-pulsed DC
From the text: as §3

ID8 cells = test: CTL assay, lysis of ID8 cells by CD3+/CD8+ splenocytes; type: cell-based, mice; details: splenocytes from vaccinated animals treated with BQ-788
[3] = system: intraperitoneal ID8 cells; test: Orthotopic, intraperitoneal ID8 model of ovarian cancer (ascites, survival); type: in vivo, mice; details: vaccinated animals, BQ-788 every 2nd day for 2 weeks from two weeks after i.p. ID8, versus control peptide
Procedure: as §1, §2
The impact of BQ-788 on survival in vaccinated animals was also tested in the orthotopic, intraperitoneal ID8 model of ovarian cancer. Following vaccination, mice were injected i.p. with ID8 cells. Two weeks later, animals received either BQ-788 or control peptide every 2nd day for 2 weeks.

HUVEC [4] = test: HUVEC treated with Endothelin and BQ-788: morphology and qRT-PCR; type: cell-based, human; details: for morphology of HUVEC: BQ-788 in the presence of Endothelin, 6 days
Procedure: qRT-PCR was performed using primers to the 3′ end of transcripts spanning intron-exon boundaries whenever possible for 35 cycles using Sybergreen® (ABI, Foster City, Calif.), with primers at 150 nM concentrations. Primers were 18-24 nucleotides and were designed to have a TM of 59-61° C. All transcripts were confirmed using 3% agarose gel electrophoresis. Gene expression was normalized against β-actin in all studies unless stated otherwise.
(§4) Human vascular endothelial cells (HUVEC) were grown to 70% confluence in EBM media then treated with 50 nM Endothelin receptor B inhibitor BQ-788 (American peptide), or 2.5 nm Endothelin alone or in the presence of either 50 nm Endothelin receptor A inhibitor BQ123 (American peptide), or 50 nM Endothelin receptor B inhibitor BQ-788. Alternatively cells were treated with BQ-788 alone. Media was changed every 48 hrs for a total of 6 days. After 6 days cells were harvested for RNA, flow cytometry or incubated activated T cells. T cells were activated for 48 hours with either 5 ng/ml PMA […] or CD3 and CD28 beads. After activation T cells were labeled with CFSE and then incubated with pretreated endothelial cells for 2 hours with shaking. Cells were then washed 3× with PBS and adhesions was determined using a fluorescent plate reader.
Next, the effect of BQ-788 on human and murine endothelial cells or T cells was tested in the presence or absence of ET-1 ligand. In addition, the effect of endothelin receptor A antagonist BQ123 was tested. […] Moreover, there was a decrease in the expression of VE-Cadherin mRNA in BQ788-treated cells (FIG. 9).

HUVEC [5] = test: Adhesion of activated T cells to pretreated HUVEC; type: cell-based, human; details: for adherence of activated human T cells to HUVEC: T cells activated with PMA or CD3/CD28, Endothelin plus BQ-788 compared to Endothelin alone, Endothelin and ETRA antagonist, or untreated; for T cell adhesion to HUVEC in the presence of TNF- and ET-1: NO antagonist / NO donor under the same experimental conditions
Procedure: as §4
The ability of activated T cells to adhere to BQ-788-treated HUVEC was also tested. […] T cell adherence to BQ788/Endothelin-treated HUVEC was 40% as effective as TNF-alpha activation of HUVEC. Thus, under the conditions utilized, BQ788 induces expression of ICAM-1 on endothelial cells and leads to increased T cell adhesion to tumor endothelium, playing a role in its increase of intratumoral T cells and enhancement of vaccine efficacy.
(§5) To further test the role of ETRB signaling in adhesion, the effects of NO antagonist L-NAME and NO donor DETANO were tested under the above experimental conditions. […] Thus, ET-1, through ETRB, downregulates the ability of endothelium to respond to inflammatory signals present in the tumor microenvironment such as TNF-α, which is restored by blocking ETRB through BQ788. Further, an NO antagonist abrogated the effects of ET-1, while NO donor reproduced its effect, showing that NO plays a role in the inhibitory effect of ET-1. To further test whether ETRB signaling upregulates NO in endothelial cells, reactive oxidative species (ROS) were quantified in HUVEC.

HUVEC [6] = test: Reactive oxidative species (ROS) quantified in HUVEC; type: cell-based, human; details: for ROS in HUVEC: exposure to rhET-1, with or without BQ788
Procedure: as §5

## CCCC[C@@H](NC(=O)[C@@H](Cc1cn(C(=O)OC)c2ccccc12)NC(=O)[C@H](CC(C)(C)C)NC(=O)N1[C@H](C)CCC[C@@H]1C)C(=O)O [BQ-788]
ID8 flank tumors [1]; non-vaccinated mice treated with BQ-788
  tumor growth delay: not observed
ID8 flank tumors [1]; vaccinated mice, i.p. BQ-788 every 2nd day for 2 weeks, starting at 2 or at 5 weeks after engraftment
  tumor growth: significant reduction in tumor growth
ID8 flank tumors [2]; BQ788 treated animals as compared to control animals
  numbers of CD3+, CD8+ T cells in tumors, FACS analysis: increased numbers of CD3^+, CD8^+ T cells
ID8 flank tumors [2]; non-vaccinated animals treated with BQ-788
  intratumoral CD8+ T cells (IHC): scarce intratumoral CD8^+ T cells
ID8 flank tumors [2]; non-vaccinated animals treated with BQ-788, stated together with vaccinated animals treated with control peptide
  CD3+ cells as share of the cells of dissected tumors, flow cytometry, average: 4%
ID8 flank tumors [2]; vaccinated animals treated with BQ-788
  CD3+ cells as share of the cells of dissected tumors, flow cytometry: 15%
ID8 flank tumors [2]; vaccinated mice treated with BQ-788
  intratumoral CD8+ T cells (IHC): very strong infiltration by CD8^+ T cells
ID8 flank tumors [2]; vaccinated mice treated with BQ-788, listed as BQ788
  intratumoral CD8+ T cells (IHC): significant numbers of CD8^+ T cells
CD3+/CD8+ splenocytes
  proliferation of lymphocytes from vaccinated mice: similar
ID8 cells
  ID8 cell killing by CD3+/CD8+ splenocytes: robust ID8 cell killing
[3]
  ascites development: developed ascites later
  survival: significant prolongation of survival
HUVEC [4]; BQ788-treated HUVEC
  mRNA levels for ICAM-2, ICAM-3, E-selectin, JAM, CXCL-11, CCL-19, or CCL-21: No specific changes were detected
HUVEC [4]; BQ788-treated HUVEC in the presence of Endothelin
  expression of VE-Cadherin mRNA: decrease; also recorded: decreased expression of VE-Cadherin
HUVEC [4]
  morphology of HUVEC: distinct morphological change
HUVEC [4]; listed as BQ788
  morphology of HUVEC: Morphologic changes
HUVEC [4]; Endothelin and BQ-788 compared to untreated HUVEC, Endothelin alone, or Endothelin plus ETRA antagonist
  increased expression of ICAM-1 mRNA, qRT-PCR: over 7 fold
HUVEC [4]; Endothelin+BQ788-treated HUVEC as compared to Endothelin alone or BQ788 alone
  expression of ICAM1, qRT-PCR (in words): increased expression of ICAM1
HUVEC [5]; BQ788/Endothelin-treated HUVEC
  T cell adherence relative to TNF-alpha activation of HUVEC: 40%
HUVEC [5]
  adherence of activated human T cells to HUVEC: increased adherence
HUVEC [5]; listed as BQ788
  adherence of activated human T cells to HUVEC: increased ability of T cells to adhere
HUVEC [6]; HUVEC exposed to ET-1
  suppression of ROS compared with bacterial LPS: as potent as bacterial LPS
HUVEC [6]
  ROS in HUVEC: abrogated such response to ET-1

## COC(=O)[C@@H](N)CCCNC(=N)N[N+](=O)[O-] [L-NAME]
HUVEC [5]
  T cell adhesion to HUVEC in the presence of TNF- and ET-1: restored T cell adhesion

## NCCN(CCN)/[N+]([O-])=N/O [DETANO]
HUVEC [5]
  T cell adhesion to HUVEC in the presence of TNF- and ET-1: mimicked the effects of ET-1

## CC[C@H](C)[C@H](NC(=O)[C@H](CC(=O)O)NC(=O)[C@H](CC(C)C)NC(=O)[C@H](Cc1c[nH]cn1)NC(=O)[C@@H]1CSSC[C@H](N)C(=O)N[C@@H](CO)C(=O)N[C@H]2CSSC[C@H](NC(=O)[C@H](CCC(=O)O)NC(=O)[C@H](CCCCN)NC(=O)[C@H](CC(=O)O)NC(=O)[C@H](CCSC)NC(=O)[C@H](CC(C)C)NC(=O)[C@H](CO)NC(=O)[C@H](CO)NC2=O)C(=O)N[C@@H](C(C)C)C(=O)N[C@@H](Cc2ccc(O)cc2)C(=O)N[C@@H](Cc2ccccc2)C(=O)N1)C(=O)N[C@H](C(=O)N[C@@H](Cc1c[nH]c2ccccc12)C(=O)O)[C@@H](C)CC [rhET-1]
HUVEC [6]
  ROS in HUVEC: upregulated ROS
